Read-outs that look alike come from different tables or passages of the source.
Legend:
Format in all cases: cell-based
[1] = system: A2780 cis, variant of A2780 showing resistance to cis-platin; assay: Cell growth inhibition, A2780 cis (cis-platin resistant variant); conditions: 24 hours exposure
Description: (§1) The compounds are tested on 24 -well trays. Cells growing in a flask are harvested just before they become confluent, counted using a haemocytometer and diluted down with media to a concentration of 1×10^4 cells per ml. The cells are then seeded in the 24 -well trays at a density of […] (i.e. 1 ml of the diluted cell suspension is added to each well). The cells are then left to plate down and grow for 72 hours before adding the compounds of the invention.
(§2) The Ru complexes are weighed out and made up to a concentration of is 1 mg/ml with deionised water then sonicated, until they go into solution. The appropriate volume of the Ru solution is added to 5 ml of media to make it up to a concentration of 100 μM for each drug. This 100 μM solution is then serially diluted to make up the 10 μM, 1 μM and 0.1 μM solutions.
(§3) The media is removed from the cells and replaced with 1 ml of the media dosed with drug. Each concentration is done in duplicate. A set of control wells are left on each plate, containing media without drug.
(§4) The cells are left exposed to the drugs for 24 hours and then washed with phosphate buffered saline before fresh media is added.
(§5) They are allowed to grow on for a further 3 days before being counted using a Coulter counter.
(§6) • Media is removed and 1 ml of PBS is added to the cells. • 250 μl of trypsin is added and cells left in incubator for a few minutes to allow the monolayers to detach. • Once trypsinised, 250 μl of media is added to each well to neutralise the trypsin. 200 μl of this suspension is added to 10 ml of NaCl for counting. 2. Results
(§7) The experiments were repeated to investigate the effect of the compounds of the invention on drag-resistant variants of the A2780 cell line.

[2] = system: A2780 ovarian cancer cell line; assay: Cell growth inhibition, A2780 ovarian cancer cell line
Description: as §1, §2, §3, §4, §5, §6
Using the above protocol, a number of compounds of the invention were tested on A2780 ovarian cancer cell line.

[3] = system: A2780 AD, variant of A2780 showing resistance to adriomycin; assay: Cell growth inhibition, A2780 AD (adriomycin resistant variant); conditions: multidrug resistant, over expresses p glycoprotein, 24 hours exposure
Description: as §1, §2, §3, §4, §5, §6, §7

[4] = A2780, repeated experiments with drug-resistant variants, 24 hours exposure, read-out: IC50 A2780
[5] = A2780 ovarian cancer cell line, 24 hours drug exposure, counted after a further 3 days, first experiment, read-out: IC50

Compound | IC50 [1] [µM] | IC50 [2, 4] [µM] | IC50 [2, 5] [µM] | IC50 [3] [µM]
F[P-](F)(F)(F)(F)F.NCCN.[Cl][Ru+].c1ccc2c(c1)Cc1ccccc1C2 [Example 4, [η^6-C14H12)RuCl(en)]^+PF6−] | 16 | 2 | 0.3 | 104
[Cl][Ru][Cl].c1ccc2c(c1)Cc1ccccc1C2 [Example 5, [(η^6-C14H12)RuCl2(DMSO)]] | 2 | 126 | 68 | 5
CC#N.CC#N.F[P-](F)(F)(F)(F)F.[Cl][Ru+].c1ccc2c(c1)Cc1ccccc1C2 [Example 6, [(η^6-C14H12)RuCl(CH3CN)2]^+PF6^−] | 2 | 192 | 315 | 0.9
C1=CCC2=C(C1)Cc1ccccc1C2.CC#N.CC#N.F[P-](F)(F)(F)(F)F.[Cl][Ru+] [Example 3, [(η^6-C14H14)RuCl(CH3CN)2]^+PF6^−] | 2 | 116 | 177 | 2
C1=CCC2=C(C1)Cc1ccccc1C2.[Cl][Ru][Cl] [Example 2, [(η^6-C14H14)RuCl2(DMSO)]] | 493 | 94 | 94 | 4
C1=CCC2=C(C1)Cc1ccccc1C2.F[P-](F)(F)(F)(F)F.NCCN.[Cl][Ru+] [Example 1, [(η^6-C14H14)RuCl(en)]^+PF6] | 1 | 0.5 | 0.5 | 328
{[(η^6-C14H14)RuCl]2[H2N(CH2)2NH(CH2)6NH(CH2)2NH2−N,N′N″,N′″]}^2+.2PF6^− [Example 7] |  |  | 6 | 

Reference: US6936634B2, “Ruthenium (II) compounds for use in the therapy of cancer” (The University Court, The University of Edinburgh (UK), priority 2000, dated 2005)
